Reference: patent US20180185408A1, “ANTIFUNGAL NYLON-3 POLYMERS AND COMBINATION THERAPY USING THEM TO TREAT FUNGAL INFECTIONS” (priority 2016, published 2018)
Values after ≈ are worked out from the molar mass of the structure shown. Like-named read-outs stand apart in the source and are kept apart here.

Tests used:
Type in all cases: cell-based
[1] = tested on: Cryptococcus spp.; experiment: MIC and MFC by broth microdilution, summary over Cryptococcus strains
[2] = tested on: Candida lusitaniae; experiment: Minimum fungicidal concentration (MFC), plating after MIC assay; settings: C. Lusitania (CL3), Sensitive; RPMI 1640 (0.2% Glucose); […]10^5 cells/mL; 30° C.
[3] = tested on: Candida spp.; experiment: MIC and MFC by broth microdilution, summary over Candida strains; settings: Candida test strains, except resistant strain E4
[4] = tested on: Candida albicans; experiment: MIC by broth microdilution (CLSI M27-A3)
[5] = tested on: Cryptococcus neoformans; experiment: MIC by broth microdilution (CLSI M27-A3); settings: […]10^3 cells/mL

Work on C[C@@H]1[C@H](O)[C@@H](C)/C=C/C=C/C=C/C=C/C=C/C=C/C=C/[C@H](O[C@@H]2O[C@H](C)[C@@H](O)[C@H](N)[C@@H]2O)C[C@@H]2O[C@](O)(C[C@@H](O)C[C@@H](O)[C@H](O)CC[C@@H](O)C[C@@H](O)CC(=O)O[C@H]1C)C[C@H](O)[C@H]2C(=O)O [AMB, amphotericin B] yielded an MIC ([1]; Cryptococcus test strains) of about 1 µM (≈ 0.924 µg/mL), an MFC ([1]; Cryptococcus test strains (FLC: all strains except C21F3)) of about 1 µM (≈ 0.924 µg/mL) and an MFC [2] of 1.56 mg/L (≈ 1.69 µM). For the same compound, the “MIC and MFC values” [3] was “sub-μM”, the MIC ([4]; C. albicans (E4), Amp B Resistant, RPMI 1640 (0.2% Glucose), […]10^5 cells/mL, 30° C.) was 3.13 mg/L and the MIC ([4]; C. albicans (E4), […]10^3 cells/mL, 35°C, read-out: MIC) was 3.4 µM. It also gave an MIC ([4]; C. albicans (Gu5), Fluconazole Resistant, RPMI 1640 (0.2% Glucose), […]10^5 cells/mL, 30° C.) of 0.78 mg/L, an MIC ([4]; C. albicans (Gu5), […]10^3 cells/mL, 35°C, read-out: MIC) of 0.9 µM and an MIC ([4]; C. albicans (K1), Fluconazole Resistant, RPMI 1640 (0.2% Glucose), […]10^5 cells/mL, 30° C.) of 0.78 mg/L. For the same compound, the MIC ([4]; C. albicans (K1), […]10^3 cells/mL, 35°C, read-out: MIC) was 1.7 µM, the MIC ([4]; C. albicans (SC5314), […]10^3 cells/mL, 35°C, read-out: MIC) was 0.9 µM and the MIC ([4]; C. albicans (SCG5314), Sensitive, RPMI 1640 (0.2% Glucose), […]10^5 cells/mL, 30° C.) was 0.78 mg/L. It also gave an MIC ([4]; E4, […]10^3 cells/mL, 35°C, OD600 24 h, avg.) of 6.3 mg/L, an MIC ([4]; E4, […]10^3 cells/mL, 35°C, OD600 24 h, avg., read-out: MIC) of 6.8 µM and an MIC ([4]; E4, […]10^3 cells/mL, 35°C, OD600 24 h, trial 1) of 6.3 mg/L. It also gave an MIC ([4]; E4, […]10^3 cells/mL, 35°C, OD600 24 h, trial 1, read-out: MIC) of 6.8 µM, an MIC ([4]; E4, […]10^3 cells/mL, 35°C, OD600 24 h, trial 2) of 6.3 mg/L and an MIC ([4]; E4, […]10^3 cells/mL, 35°C, OD600 24 h, trial 2, read-out: MIC) of 6.8 µM. It also gave an MIC ([4]; E4, […]10^5 cells/mL, 30°C, OD600 48 h, avg.) of 3.1 mg/L, an MIC ([4]; E4, […]10^5 cells/mL, 30°C, OD600 48 h, avg., read-out: MIC) of 3.4 µM and an MIC ([4]; E4, […]10^5 cells/mL, 30°C, OD600 48 h, trial 1) of 3.1 mg/L. For the same compound, the MIC ([4]; E4, […]10^5 cells/mL, 30°C, OD600 48 h, trial 1, read-out: MIC) was 3.4 µM, the MIC ([4]; E4, […]10^5 cells/mL, 30°C, OD600 48 h, trial 2) was 3.1 mg/L and the MIC ([4]; E4, […]10^5 cells/mL, 30°C, OD600 48 h, trial 2, read-out: MIC) was 3.4 µM. The MIC ([4]; Gu5, […]10^3 cells/mL, 35°C, OD600 24 h, avg.) was 2.0 mg/L, the MIC ([4]; Gu5, […]10^3 cells/mL, 35°C, OD600 24 h, avg., read-out: MIC) was 2.2 µM and the MIC ([4]; Gu5, […]10^3 cells/mL, 35°C, OD600 24 h, trial 1) was under 1.6 mg/L. It also gave an MIC ([4]; Gu5, […]10^3 cells/mL, 35°C, OD600 24 h, trial 1, read-out: MIC) of under 1.7 µM, an MIC ([4]; Gu5, […]10^3 cells/mL, 35°C, OD600 24 h, trial 2) of 3.1 mg/L and an MIC ([4]; Gu5, […]10^3 cells/mL, 35°C, OD600 24 h, trial 2, read-out: MIC) of 3.4 µM. The MIC ([4]; Gu5, […]10^5 cells/mL, 30°C, OD600 48 h, avg.) was 0.8 mg/L, the MIC ([4]; Gu5, […]10^5 cells/mL, 30°C, OD600 48 h, avg., read-out: MIC) was 0.9 µM and the MIC ([4]; Gu5, […]10^5 cells/mL, 30°C, OD600 48 h, trial 1) was 0.8 mg/L. The MIC ([4]; Gu5, […]10^5 cells/mL, 30°C, OD600 48 h, trial 1, read-out: MIC) was 0.9 µM, the MIC ([4]; Gu5, […]10^5 cells/mL, 30°C, OD600 48 h, trial 2) was 0.8 mg/L and the MIC ([4]; Gu5, […]10^5 cells/mL, 30°C, OD600 48 h, trial 2, read-out: MIC) was 0.9 µM. It also gave an MIC ([4]; K1, […]10^3 cells/mL, 35°C, OD600 24 h, avg.) of under 1.6 mg/L, an MIC ([4]; K1, […]10^3 cells/mL, 35°C, OD600 24 h, avg., read-out: MIC) of under 1.7 µM and an MIC ([4]; K1, […]10^3 cells/mL, 35°C, OD600 24 h, trial 1) of under 1.6 mg/L. The MIC ([4]; K1, […]10^3 cells/mL, 35°C, OD600 24 h, trial 1, read-out: MIC) was under 1.7 µM, the MIC ([4]; K1, […]10^3 cells/mL, 35°C, OD600 24 h, trial 2) was under 1.6 mg/L and the MIC ([4]; K1, […]10^3 cells/mL, 35°C, OD600 24 h, trial 2, read-out: MIC) was under 1.7 µM. It also gave an MIC ([4]; K1, […]10^5 cells/mL, 30°C, OD600 48 h, avg.) of 1.6 mg/L, an MIC ([4]; K1, […]10^5 cells/mL, 30°C, OD600 48 h, avg., read-out: MIC) of 1.7 µM and an MIC ([4]; K1, […]10^5 cells/mL, 30°C, OD600 48 h, trial 1) of 1.6 mg/L. The MIC ([4]; K1, […]10^5 cells/mL, 30°C, OD600 48 h, trial 1, read-out: MIC) was 1.7 µM, the MIC ([4]; K1, […]10^5 cells/mL, 30°C, OD600 48 h, trial 2) was 1.6 mg/L and the MIC ([4]; K1, […]10^5 cells/mL, 30°C, OD600 48 h, trial 2, read-out: MIC) was 1.7 µM. It also gave an MIC ([4]; SC5314, […]10^3 cells/mL, 35°C, OD600 24 h, avg.) of 4.7 mg/L, an MIC ([4]; SC5314, […]10^3 cells/mL, 35°C, OD600 24 h, avg., read-out: MIC) of 5.1 µM and an MIC ([4]; SC5314, […]10^3 cells/mL, 35°C, OD600 24 h, trial 1) of 3.1 mg/L. For the same compound, the MIC ([4]; SC5314, […]10^3 cells/mL, 35°C, OD600 24 h, trial 1, read-out: MIC) was 3.4 µM, the MIC ([4]; SC5314, […]10^3 cells/mL, 35°C, OD600 24 h, trial 2) was 6.3 mg/L and the MIC ([4]; SC5314, […]10^3 cells/mL, 35°C, OD600 24 h, trial 2, read-out: MIC) was 6.8 µM. It also gave an MIC ([4]; SC5314, […]10^5 cells/mL, 30°C, OD600 48 h, avg.) of 0.8 mg/L, an MIC ([4]; SC5314, […]10^5 cells/mL, 30°C, OD600 48 h, avg., read-out: MIC) of 0.9 µM and an MIC ([4]; SC5314, […]10^5 cells/mL, 30°C, OD600 48 h, trial 1) of 0.8 mg/L. It also gave an MIC ([4]; SC5314, […]10^5 cells/mL, 30°C, OD600 48 h, trial 1, read-out: MIC) of 0.9 µM, an MIC ([4]; SC5314, […]10^5 cells/mL, 30°C, OD600 48 h, trial 2) of 0.8 mg/L and an MIC ([4]; SC5314, […]10^5 cells/mL, 30°C, OD600 48 h, trial 2, read-out: MIC) of 0.9 µM. It also gave an MIC ([5]; B3501, 30°C, […]) of 0.8 mg/L, an MIC ([5]; B3501, 30°C, […], Table 15) of 0.9 µM and an MIC ([5]; C21F3, 30°C, OD600 48 h) of 0.8 mg/L. For the same compound, the MIC ([5]; C21F3, 30°C, OD600 48 h, Table 15) was 0.9 µM and the MIC ([5]; C. neoformans (B3501), Sensitive, RPMI 1640 (0.2% Glucose), 37° C.) was 0.8 mg/L.
